From patent publication US9260467B2, “Sialic acid dimers” (priority 2011, dated 2016)

Target: T1, Siglec-2 (CD22) (Homo sapiens, UniProt P20273)
T1 sequence (P20273 20-847): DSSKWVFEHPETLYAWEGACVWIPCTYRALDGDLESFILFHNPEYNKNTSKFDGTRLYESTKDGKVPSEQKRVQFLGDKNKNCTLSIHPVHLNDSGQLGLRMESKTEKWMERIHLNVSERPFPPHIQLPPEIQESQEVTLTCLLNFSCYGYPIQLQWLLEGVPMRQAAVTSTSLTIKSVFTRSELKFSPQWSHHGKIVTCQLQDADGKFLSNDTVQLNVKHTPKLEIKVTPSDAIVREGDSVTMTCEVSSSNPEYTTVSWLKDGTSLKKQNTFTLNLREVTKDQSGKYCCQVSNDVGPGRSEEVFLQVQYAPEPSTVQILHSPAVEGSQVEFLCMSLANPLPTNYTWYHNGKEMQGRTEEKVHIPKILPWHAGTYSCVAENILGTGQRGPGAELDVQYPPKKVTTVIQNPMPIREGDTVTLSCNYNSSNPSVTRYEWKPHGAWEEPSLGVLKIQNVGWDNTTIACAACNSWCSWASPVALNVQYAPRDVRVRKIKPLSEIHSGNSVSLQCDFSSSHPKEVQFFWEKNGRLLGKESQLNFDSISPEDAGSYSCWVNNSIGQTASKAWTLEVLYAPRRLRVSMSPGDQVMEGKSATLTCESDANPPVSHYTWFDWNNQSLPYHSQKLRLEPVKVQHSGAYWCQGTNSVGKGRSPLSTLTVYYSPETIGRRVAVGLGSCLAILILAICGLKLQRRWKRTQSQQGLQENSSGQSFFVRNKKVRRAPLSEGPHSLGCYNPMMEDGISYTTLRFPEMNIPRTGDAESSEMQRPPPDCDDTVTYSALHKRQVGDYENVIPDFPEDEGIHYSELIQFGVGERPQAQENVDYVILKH
Experiment: new affinity assay: displacement of biotinylated compound 155 from sialidase-treated Daudi cells, FACS with streptavidin-PE
Format: binding
Set-up: endogenous in cells; host or cells: Daudi (human B-cell lymphoma line)
Settings: Table II; rIP values set relative to compound 38; Daudi cells, displacement of compound 155
Method: To determine the affinity of the compound of the formula (I), approximately 5×10^6 to 2×10^8 cells of the human B-cell lymphoma line “Daudi” were incubated with sialidase (A. ureafaciens) at 37° C. for 1 h (final concentration 0.1 unit/ml). […] Batches of 1-2×10^6 cells were transferred to sample vessels, and incubated on ice for 15 min with serial concentrations (10-fold dilutions, 1 mM to 1×10^−7 mM) of the substance under measurement (inhibitor). The reaction volume was 50 μl. Then 50 microliters of compound 155 (4-micromolar) were added, and incubation took place for 20 min Washing with FACS buffer (PBS, 0.1 BSA, 0.01% sodium azide) was followed by incubation with streptavidin-PE in the dark for 15 min, followed by washing and measurement of the bound amount of […] via the streptavidin-PE in the FACS. For the determination of 0% displacement of the compound 155, cells without inhibitor were measured. For the determination of 100% displacement, cells were measured without compound 155 and without inhibitor. For each assay, four substances and one reference were measured. The IC50 values determined in each assay were subsequently converted into values of rIP (relative Inhibitory Potency). […]

Row | SMILES | rIP
1 | CC(=O)N[C@H]1[C@H]([C@H](O)[C@H](O)CNC(=O)Cc2ccc3ccccc3c2)O[C@@](OCCCSCCNC(=O)c2ccc(-c3ccc(C(=O)NCCSCCCO[C@]4(C(=O)[O-])C[C@H](O)[C@@H](NC(C)=O)[C@H]([C@H](O)[C@H](O)CNC(=O)Cc5ccc6ccccc6c5)O4)cc3)cc2)(C(=O)[O-])C[C@@H]1O.[Na+].[Na+] [Compound 127] | 74
2 | CC(=O)N[C@H]1[C@H]([C@H](O)[C@H](O)CNC(=O)c2ccc(-c3ccccc3)cc2)O[C@@](OCCCSCCNC(=O)Nc2ccc(NC(=O)NCCSCCCO[C@]3(C(=O)[O-])C[C@H](O)[C@@H](NC(C)=O)[C@H]([C@H](O)[C@H](O)CNC(=O)c4ccc(-c5ccccc5)cc4)O3)cc2)(C(=O)[O-])C[C@@H]1O.[Na+].[Na+] [Compound 49] | 626
3 | COc1ccccc1-c1ccc(C(=O)NC[C@@H](O)[C@@H](O)[C@@H]2O[C@@](OCCCSCCNC(=O)c3ccc(C(=O)NCCSCCCO[C@]4(C(=O)[O-])C[C@H](O)[C@@H](NC(C)=O)[C@H]([C@H](O)[C@H](O)CNC(=O)c5ccc(-c6ccccc6OC)cc5)O4)cc3)(C(=O)[O-])C[C@H](O)[C@H]2NC(C)=O)cc1.[Na+].[Na+] [Compound 74] | 27
4 | CC(=O)N[C@H]1[C@H]([C@H](O)[C@H](O)CNC(=O)c2ccc(-c3ccccc3)cc2)O[C@@](OCCCSCCNC(=O)c2ccc(C(=O)NCCSCCCO[C@]3(C(=O)[O-])C[C@H](O)[C@@H](NC(C)=O)[C@H]([C@H](O)[C@H](O)CNC(=O)c4ccc(-c5ccccc5)cc4)O3)cc2)(C(=O)[O-])C[C@@H]1OC(=O)c1ccccc1.[Na+].[Na+] [Compound 147] | 32069
5 | CC(=O)N[C@H]1[C@H]([C@H](O)[C@H](O)CNC(=O)c2ccc(-c3ccccc3)cc2)O[C@@](OCCCSCCNC(=O)CSSCC(=O)NCCSCCCO[C@]2(C(=O)[O-])C[C@H](O)[C@@H](NC(C)=O)[C@H]([C@H](O)[C@H](O)CNC(=O)c3ccc(-c4ccccc4)cc3)O2)(C(=O)[O-])C[C@@H]1O.[Na+].[Na+] [Compound 13] | 251
6 | CC(=O)N[C@H]1[C@H]([C@H](O)[C@H](O)CNC(=O)c2ccc(-c3cccs3)s2)O[C@@](OCCCSCCNC(=O)c2ccc(C(=O)NCCSCCCO[C@]3(C(=O)[O-])C[C@H](O)[C@@H](NC(C)=O)[C@H]([C@H](O)[C@H](O)CNC(=O)c4ccc(-c5cccs5)s4)O3)cc2)(C(=O)[O-])C[C@@H]1O.[Na+].[Na+] [Compound 62] | 203
7 | CC(=O)Nc1ccc(C(=O)NC[C@@H](O)[C@@H](O)[C@@H]2O[C@@](OCCCSCCNC(=O)c3ccc(C(=O)NCCSCCCO[C@]4(C(=O)[O-])C[C@H](O)[C@@H](NC(C)=O)[C@H]([C@H](O)[C@H](O)CNC(=O)c5ccc(NC(C)=O)cc5)O4)cc3)(C(=O)[O-])C[C@H](O)[C@H]2NC(C)=O)cc1.[Na+].[Na+] [Compound 73] | 13
8 | CC(=O)N[C@H]1[C@H]([C@H](O)[C@H](O)CNC(=O)c2ccc(-c3ccccc3)cc2)O[C@@](OCCCSCCNC(=O)CCC(=O)NCCSCCCO[C@]2(C(=O)[O-])C[C@H](O)[C@@H](NC(C)=O)[C@H]([C@H](O)[C@H](O)CNC(=O)c3ccc(-c4ccccc4)cc3)O2)(C(=O)[O-])C[C@@H]1O.[Na+].[Na+] [Compound 36] | 23
9 | CC(=O)N[C@H]1[C@H]([C@H](O)[C@H](O)CNC(=O)c2ccc(-c3ccccc3)cc2)O[C@@](OCCCSCCNC(=O)c2ccc(NC(=O)CCSCCCO[C@]3(C(=O)[O-])C[C@H](O)[C@@H](NC(C)=O)[C@H]([C@H](O)[C@H](O)CNC(=O)c4ccc(-c5ccccc5)cc4)O3)cc2)(C(=O)[O-])C[C@@H]1O.[Na+].[Na+] [Compound 54] | 7092
10 | CC(=O)N[C@H]1[C@H]([C@H](O)[C@H](O)CNC(=O)c2ccc(-c3ccccc3)cc2)O[C@@](OCC(=O)NCCCC(=O)Nc2ccc(NC(=O)CCCNC(=O)CO[C@]3(C(=O)[O-])C[C@H](O)[C@@H](NC(C)=O)[C@H]([C@H](O)[C@H](O)CNC(=O)c4ccc(-c5ccccc5)cc4)O3)cc2)(C(=O)[O-])C[C@@H]1O.[Na+].[Na+] [Compound 90] | 1445
11 | CC(=O)N[C@H]1[C@H]([C@H](O)[C@H](O)CNC(=O)c2ccc(-c3ccsc3)cc2)O[C@@](OCCCSCCNC(=O)c2ccc(C(=O)NCCSCCCO[C@]3(C(=O)[O-])C[C@H](O)[C@@H](NC(C)=O)[C@H]([C@H](O)[C@H](O)CNC(=O)c4ccc(-c5ccsc5)cc4)O3)cc2)(C(=O)[O-])C[C@@H]1O.[Na+].[Na+] [Compound 81] | 2068
12 | CC(=O)N[C@H]1[C@H]([C@H](O)[C@H](O)CNC(=O)c2ccc(-c3ccccc3)s2)O[C@@](OCCCSCCNC(=O)c2ccc(C(=O)NCCSCCCO[C@]3(C(=O)[O-])C[C@H](O)[C@@H](NC(C)=O)[C@H]([C@H](O)[C@H](O)CNC(=O)c4ccc(-c5ccccc5)s4)O3)cc2)(C(=O)[O-])C[C@@H]1O.[Na+].[Na+] [Compound 65] | 106
13 | CC(=O)N[C@H]1[C@H]([C@H](O)[C@H](O)CNC(=O)c2ccc(-c3ccc(C(=O)[O-])cc3)cc2)O[C@@](OCCCSCCNC(=O)c2ccc(C(=O)NCCSCCCO[C@]3(C(=O)[O-])C[C@H](O)[C@@H](NC(C)=O)[C@H]([C@H](O)[C@H](O)CNC(=O)c4ccc(-c5ccc(C(=O)[O-])cc5)cc4)O3)cc2)(C(=O)[O-])C[C@@H]1O.[Na+].[Na+].[Na+].[Na+] [Compound 68] | 5
14 | CC(=O)N[C@H]1[C@H]([C@H](O)[C@H](O)CNC(=O)c2ccc(C(F)(F)F)cc2)O[C@@](OCCCSCCNC(=O)c2ccc(C(=O)NCCSCCCO[C@]3(C(=O)[O-])C[C@H](O)[C@@H](NC(C)=O)[C@H]([C@H](O)[C@H](O)CNC(=O)c4ccc(C(F)(F)F)cc4)O3)cc2)(C(=O)[O-])C[C@@H]1O.[Na+].[Na+] [Compound 71] | 32
15 | CC(=O)N[C@H]1[C@H]([C@H](O)[C@H](O)CNC(=O)c2ccc(-c3ccccc3)cc2)O[C@@](OCCCCCCNC(=O)c2ccc(C(=O)NCCSCCCO[C@]3(C(=O)O)C[C@H](O)[C@@H](NC(C)=O)[C@H]([C@H](O)[C@H](O)CNC(=O)c4ccc(-c5ccccc5)cc4)O3)cc2)(C(=O)O)C[C@@H]1O [Compound 92] | 3788
16 | CC(=O)N[C@H]1[C@H]([C@H](O)[C@H](O)CNC(=O)c2ccc(-c3ccc([N+](=O)[O-])cc3[N+](=O)[O-])c([N+](=O)[O-])c2)O[C@@](OCCCSCCNC(=O)c2ccc(C(=O)NCCSCCCO[C@]3(C(=O)[O-])C[C@H](O)[C@@H](NC(C)=O)[C@H]([C@H](O)[C@H](O)CNC(=O)c4ccc(-c5ccc([N+](=O)[O-])cc5[N+](=O)[O-])c([N+](=O)[O-])c4)O3)cc2)(C(=O)[O-])C[C@@H]1O.[Na+].[Na+] [Compound 69] | 14
17 | CC(=O)N[C@H]1[C@H]([C@H](O)[C@H](O)CNC(=O)c2ccc(-c3ccccc3)cc2)O[C@](C(=O)[O-])(n2cc(CCCCNC(=O)c3ccc(C(=O)NCCCCc4cn([C@]5(C(=O)[O-])C[C@H](O)[C@@H](NC(C)=O)[C@H]([C@H](O)[C@H](O)CNC(=O)c6ccc(-c7ccccc7)cc6)O5)nn4)cc3)nn2)C[C@@H]1O.[Na+].[Na+] [Compound 110] | 12
18 | CC(=O)N[C@H]1[C@H]([C@H](O)[C@H](O)CNC(=O)c2ccc(-c3ccccc3)cc2)O[C@@](OCCCSCCNC(=O)c2ccc(C(=O)NCCSCCCO[C@]3(C(=O)[O-])C[C@H](O)[C@@H](NC(C)=O)[C@H]([C@H](O)[C@H](O)CNC(=O)c4ccc(C5CCCCC5)cc4)O3)cc2)(C(=O)[O-])C[C@@H]1O.[Na+].[Na+] [Compound 103] | 185
19 | CC(=O)N[C@H]1[C@H]([C@H](O)[C@H](O)CNS(=O)(=O)c2ccc(-c3ccccc3)cc2)O[C@@](OCCCSCCNC(=O)c2ccc(C(=O)NCCSCCCO[C@]3(C(=O)[O-])C[C@H](O)[C@@H](NC(C)=O)[C@H]([C@H](O)[C@H](O)CNS(=O)(=O)c4ccc(-c5ccccc5)cc4)O3)cc2)(C(=O)[O-])C[C@@H]1O.[Na+].[Na+] [Compound 84] | 9
20 | CC(=O)N[C@H]1[C@H]([C@H](O)[C@H](O)CNC(=O)C#Cc2ccccc2)O[C@@](OCCCSCCNC(=O)c2ccc(-c3ccc(C(=O)NCCSCCCO[C@]4(C(=O)[O-])C[C@H](O)[C@@H](NC(C)=O)[C@H]([C@H](O)[C@H](O)CNC(=O)C#Cc5ccccc5)O4)cc3)cc2)(C(=O)[O-])C[C@@H]1O.[Na+].[Na+] [Compound 129] | 21
